The term Kd denotes the free concentration of one partner at which half of the binding sites on the other are occupied at equilibrium, for simple one-to-one binding.

Results on 3 compounds are retold here after patent publication US20080200556A1, “Amine Compounds And Inhibiting Neurotrasmitter Reuptake” (MAYO FOUNDATION FOR MEDICAL EDUCATION AND RESEARCH, priority 2004, published 2008).

Each structure is given as a SMILES string.

The target of experiment [1] is T1, human serotonin transporter (hSERT) (Homo sapiens, UniProt P31645). The experiment is described as follows: biochemical.
Method: (§1) The cells were incubated in 10% CO2, 90% air at 37° C. and 100% humidity. The hNET cell cultures contained 250 μg/mL geneticin sulfate. The cells were grown to 70-80% confluency prior to harvesting.
(§2) Cell membranes containing hSERT, hNET, or hDAT were prepared from the cell lines to assay ligand binding for each of the transporters. […] The washed cells were incubated for 5 minutes at 37° C. in 10 mL solution 1 containing 100 mM ethylene glycol-bis N,N,N′,N′-tetraacetic acid (EGTA). The cells were then scraped from the flask surface with a rubber spatula, placed into a centrifuge tube, and collected by centrifugation at 1000×g for 5 minutes at 4° C. The resulting supernatant was discarded, and the cell pellet was resuspended in 0.5 to 1.0 mL of the appropriate binding buffer (described below). The resuspended cell pellet was homogenized using a Polytron for 10 seconds at setting 6. The resulting homogenate was centrifuged at about 36,000×g for 10 minutes at 4° C. The supernatant was discarded, and the pellet was resuspended in the same volume of the appropriate binding buffer and centrifuged again. […]
(§3) Radioligand binding assays for the indicated transporters were performed as follows. […] Radioactivity was measured with a Beckman liquid scintillation counter (LS 5000TD). […]
Another experiment deals with Male Sprague-Dawley rats. The experiment is described as follows: Forced swim test in rats. In kind it is in vivo, rat. The settings on record: i.p., imipramine 15 mg/kg, PRC025 10 mg/kg; for Time immobile (Counts/5 min) / Time swimming (Counts/5 min): mean ±SEM, *P < 0.05 vs. saline. How it is done: When rats are placed in a cylinder of water from which they cannot escape, they will remain immobile in the water for the majority of the test.
Water was changed between trials, and the procedure involved a pretest and a 5-minute test separated by 24 hours. During the pretest, rats (adapted to the experimental room for no less than 1 hour) were placed in the cylinder for 15 minutes. Following this initial exposure, the rats were dried with towels and transferred to a “drying cage” situated under a warming lamp. […] The following day, rats were transferred to the experimental room and acclimated for at least 1 hour.
The rat was considered immobile when floating motionless or making only those movements necessary to keep its head above the surface of the water. Scores for each behavior (swimming or immobility) were expressed as total counts per […]. Statistical analysis was performed using ANOVA followed by the Tukey test for post-hoc comparisons.

The target in experiment [2] is human dopamine transporter (hDAT) (Homo sapiens, UniProt Q01959). The experiment is described as follows: biochemical.
Method: as §1, §2
To assess binding to the cloned HDAT, cells expressing HDAT were homogenized in 50 mM Tris-HCl with 120 mM NaCl (pH 7.4). […] Radioactivity was measured with a Beckman liquid scintillation counter (LS 5000TD). […]
In the next experiment the test system is Male C57B1/6J mice. The experiment is described as follows: Tail suspension test in mice. In kind it is in vivo, mouse. The settings on record: PRC025 10 mg/kg; for Time immobile (Counts/6 min) / Time mobile (Counts/6 min): i.p. 30 minutes before testing, imipramine 15 mg/kg (table), mean ±SEM, *P < 0.05 vs. saline. The text has this:
When mice are suspended by their tail, there is an initial period of agitation, followed by immobility. This test identifies antidepressant compounds, which decrease the duration of immobility.
Mice were then individually suspended by their tails 35 cm above the tabletop using an adhesive tape placed 1 cm from the tip of the tail. Behavior was scored every 5 seconds throughout the 6-minute test as either mobile or immobile. Mice were considered immobile only when hanging passively and completely motionless. Scores for each behavior were expressed as total counts per […]. Statistical analysis was performed using ANOVA followed by the Tukey test for post-hoc comparisons.

Experiment [3] addresses T1, human serotonin transporter (hSERT).
Method: as §1, §2, §3

T1 sequence (P31645 whole entry): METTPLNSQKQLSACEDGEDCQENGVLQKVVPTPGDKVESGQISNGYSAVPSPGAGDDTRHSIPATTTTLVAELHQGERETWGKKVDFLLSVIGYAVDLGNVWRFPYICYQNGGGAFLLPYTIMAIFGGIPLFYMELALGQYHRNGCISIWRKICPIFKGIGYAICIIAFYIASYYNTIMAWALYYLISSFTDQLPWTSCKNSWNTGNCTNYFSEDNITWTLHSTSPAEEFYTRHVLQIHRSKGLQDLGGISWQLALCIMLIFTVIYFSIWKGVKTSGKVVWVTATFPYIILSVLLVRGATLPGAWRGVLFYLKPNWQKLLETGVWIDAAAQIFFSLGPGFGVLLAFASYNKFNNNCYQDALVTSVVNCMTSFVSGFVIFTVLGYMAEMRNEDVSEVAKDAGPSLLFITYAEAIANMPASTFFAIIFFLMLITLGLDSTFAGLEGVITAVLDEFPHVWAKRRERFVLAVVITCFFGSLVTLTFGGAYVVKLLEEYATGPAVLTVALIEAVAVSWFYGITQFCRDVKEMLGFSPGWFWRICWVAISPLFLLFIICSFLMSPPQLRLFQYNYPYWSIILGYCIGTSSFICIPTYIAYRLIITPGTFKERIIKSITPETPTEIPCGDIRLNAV

`CN(C)CC(c1ccc2ccccc2c1)C(O)C1CCCCC1` (racemic) [PRC025, (2RS,3SR)-N,N-dimethyl-3-cyclohexyl-3-hydroxy-2-(2′-naphthyl)propylamine] registered a Kd in experiment [1] of 4.1 nM. For the same compound, in the experiment with Male Sprague-Dawley rats, the “Time immobile (Counts/5 min)” value is on record as 28 ± 3* Counts/5 min and the “Time swimming (Counts/5 min)” value is listed as 30 ± 3* Counts/5 min. The compound further showed an equilibrium dissociation constant (Kd) in experiment [2] of 54 nM. In addition, in the experiment with Male C57B1/6J mice, the “Time immobile (Counts/6 min)” value is reported as 12 ± 3* Counts/6 min and the “Time mobile (Counts/6 min)” value was 60 ± 3* Counts/6 min. The “binding to hSERT (in words)” value in experiment [3] is “strong binding”.

On to `CNCC(c1ccc2ccccc2c1)C(O)c1ccccc1` (racemic) [Compound A, (2RS,3RS)-N-methyl-3-hydroxy-2-(2′-naphthyl)-3-phenylpropylamine], for which, in experiment [2], binding was put at a Kd of 134 nM.

Regarding `CN(C)CCCN1c2ccccc2CCc2ccccc21` [Imipramine, imipramine], in the experiment with Male Sprague-Dawley rats, the “swimming behavior versus saline (in words)” value is “statistically more swimming behavior than rats treated with saline”, the “Time immobile (Counts/5 min)” value is on record as 23 ± 3* Counts/5 min and the “Time swimming (Counts/5 min)” value was 37 ± 3* Counts/5 min. Besides, in the experiment on Male C57B1/6J mice, the “Time immobile (Counts/6 min)” value is recorded as 21 ± 4* Counts/6 min and the “Time mobile (Counts/6 min)” value is 51 ± 4* Counts/6 min. In the experiment with Male C57B1/6J mice (i.p., imipramine), the “mobile behavior versus saline (in words)” value is listed as “statistically more mobile behavior than mice treated with saline”.
